Like-named read-outs stand apart in the source and are kept apart here.
Legend:
[1] = target: PBPb-I domain of CdgH (residues 46–250) (Vibrio cholerae, UniProt Q9KT38); assay type: binding
[2] = target: LAOBP; set-up: method as in PMID 1400387; conditions: cited from earlier work

PBPb-I domain of CdgH (residues 46–250), sequence (Q9KT38 46-250 limits assumed): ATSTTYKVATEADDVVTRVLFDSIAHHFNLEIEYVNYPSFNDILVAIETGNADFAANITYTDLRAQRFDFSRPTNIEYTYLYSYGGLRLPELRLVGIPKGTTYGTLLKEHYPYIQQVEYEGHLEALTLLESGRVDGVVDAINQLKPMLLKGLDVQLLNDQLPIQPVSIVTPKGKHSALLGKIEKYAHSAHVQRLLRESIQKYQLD

Compound | ΔH ([1]; pH 8) [kcal/mol] | also measured
NCCCC[C@H](N)C(=O)O [L-Lys, L-lysine] | -6.02 ± 0.05 | binding affinity weaker than that with L-arginine [1]: about 18 fold
NCCC[C@H](N)C(=O)O [L-Orn, L-ornithine] | -3.61 ± 0.08 | Ka ([1]; pH 8): 240000 ± 33700 M⁻¹; Kd ([1]; pH 8, read-out: Kd): 4.17 µM
N[C@@H](Cc1c[nH]cn1)C(=O)O [L-His, L-histidine] | -7.90 ± 0.28 | 
NC(=O)CC[C@H](N)C(=O)O [L-Gln, L-glutamine] | -3.57 ± 1.02 | 
N=C(N)NCCC[C@H](N)C(=O)O [L-Arg, L-arginine] | -12.87 ± 0.04 | Kd [2]: 0.014 µM
N[C@@H](CC(=O)O)C(=O)O [L-aspartate] |  | Kd ([1]; pH 8): no measurable binding affinity

From article PMC5431781, “Structural studies of the periplasmic portion of the diguanylate cyclase CdgH from Vibrio cholerae” (Scientific Reports, 2017)
